Experiments:
Type in all cases: biochemical
[1] = target: recombinant human PI3Kβ (6-His(p110-p85α)) (Homo sapiens (Human), UniProt P42338); assay: Enzymatic activity assay for recombinant human PI3Kβ (ADP-Glo); settings: 1.2 nM PI3Kβ, 20 μM ATP, 80 μM DiC8-PIP2, ADP-Glo
In short: (§1)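 ADP-Glo luminescence after DiC8-PIP2 phosphorylation at RT: 80 μM lipid substrate, 20 μM ATP, 1.2 nM enzyme (0.6 nM for δ) in Tris pH 7.4 with MgCl2, DTT, CHAPS. Compounds pre-incubated 15 min with enzyme, then 60 min reaction; DMSO ≤1%.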

[2] = target: recombinant human PI3Kα (6-His(p110-p85α)) (Homo sapiens (Human), UniProt P42336); assay: Enzymatic activity assay for recombinant human PI3Kα (ADP-Glo); settings: 1.2 nM PI3Kα, 20 μM ATP, 80 μM DiC8-PIP2, ADP-Glo
Chain of recombinant human PI3Kα (6-His(p110-p85α)) (P42336 whole entry): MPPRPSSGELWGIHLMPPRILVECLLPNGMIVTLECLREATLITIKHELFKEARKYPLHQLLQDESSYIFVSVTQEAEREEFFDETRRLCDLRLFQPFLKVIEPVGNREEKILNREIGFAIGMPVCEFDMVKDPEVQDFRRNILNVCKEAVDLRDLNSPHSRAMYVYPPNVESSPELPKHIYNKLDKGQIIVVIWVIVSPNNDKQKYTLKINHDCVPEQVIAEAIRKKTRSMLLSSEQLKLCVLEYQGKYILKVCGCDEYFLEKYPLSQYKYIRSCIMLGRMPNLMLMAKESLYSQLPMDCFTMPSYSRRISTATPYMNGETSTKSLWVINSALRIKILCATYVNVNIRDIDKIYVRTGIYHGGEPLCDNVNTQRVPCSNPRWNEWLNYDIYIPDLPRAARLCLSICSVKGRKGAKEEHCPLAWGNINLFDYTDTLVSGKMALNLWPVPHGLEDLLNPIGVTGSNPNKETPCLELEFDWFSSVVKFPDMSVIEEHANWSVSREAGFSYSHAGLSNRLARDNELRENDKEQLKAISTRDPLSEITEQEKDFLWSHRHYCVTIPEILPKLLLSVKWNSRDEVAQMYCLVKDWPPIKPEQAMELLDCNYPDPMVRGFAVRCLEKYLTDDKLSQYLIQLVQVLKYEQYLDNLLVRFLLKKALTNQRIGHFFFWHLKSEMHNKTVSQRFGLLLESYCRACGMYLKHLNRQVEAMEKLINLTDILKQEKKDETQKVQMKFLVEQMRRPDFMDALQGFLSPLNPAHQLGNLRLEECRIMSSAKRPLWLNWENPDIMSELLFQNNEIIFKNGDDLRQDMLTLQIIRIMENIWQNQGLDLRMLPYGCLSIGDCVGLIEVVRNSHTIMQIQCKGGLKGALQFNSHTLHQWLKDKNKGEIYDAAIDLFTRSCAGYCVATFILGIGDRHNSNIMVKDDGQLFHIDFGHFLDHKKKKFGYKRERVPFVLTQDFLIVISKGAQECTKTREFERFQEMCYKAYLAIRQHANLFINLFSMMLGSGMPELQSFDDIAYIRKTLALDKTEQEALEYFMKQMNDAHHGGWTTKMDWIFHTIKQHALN
Chain of recombinant human PI3Kα (6-His(p110-p85α)) (P27986 whole entry partner): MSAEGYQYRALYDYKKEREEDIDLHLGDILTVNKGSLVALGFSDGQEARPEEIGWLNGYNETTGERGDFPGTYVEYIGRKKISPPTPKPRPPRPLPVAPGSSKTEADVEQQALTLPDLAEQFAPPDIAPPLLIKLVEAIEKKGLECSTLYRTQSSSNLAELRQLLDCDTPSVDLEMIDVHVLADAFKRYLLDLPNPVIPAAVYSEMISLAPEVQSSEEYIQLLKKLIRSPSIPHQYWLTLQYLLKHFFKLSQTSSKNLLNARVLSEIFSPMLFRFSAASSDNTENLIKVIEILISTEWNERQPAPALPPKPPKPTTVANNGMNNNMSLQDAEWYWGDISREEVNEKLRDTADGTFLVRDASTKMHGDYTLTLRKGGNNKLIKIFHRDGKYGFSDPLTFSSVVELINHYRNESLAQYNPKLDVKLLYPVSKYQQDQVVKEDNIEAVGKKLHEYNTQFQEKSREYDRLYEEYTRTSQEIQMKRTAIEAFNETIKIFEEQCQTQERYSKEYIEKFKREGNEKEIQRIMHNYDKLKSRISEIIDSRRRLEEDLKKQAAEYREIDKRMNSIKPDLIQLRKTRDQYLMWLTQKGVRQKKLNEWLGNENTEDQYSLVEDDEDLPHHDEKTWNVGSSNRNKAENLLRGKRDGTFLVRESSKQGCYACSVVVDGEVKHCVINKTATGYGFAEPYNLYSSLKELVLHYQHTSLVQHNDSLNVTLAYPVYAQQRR
In short: as §1

[3] = target: recombinant human PI3Kδ (6-His(p110-p85α)) (Homo sapiens (Human), UniProt O00329); assay: Enzymatic activity assay for recombinant human PI3Kδ (ADP-Glo); settings: 0.6 nM PI3Kδ, 20 μM ATP, 80 μM DiC8-PIP2, ADP-Glo
Chain of recombinant human PI3Kδ (6-His(p110-p85α)) (O00329 whole entry): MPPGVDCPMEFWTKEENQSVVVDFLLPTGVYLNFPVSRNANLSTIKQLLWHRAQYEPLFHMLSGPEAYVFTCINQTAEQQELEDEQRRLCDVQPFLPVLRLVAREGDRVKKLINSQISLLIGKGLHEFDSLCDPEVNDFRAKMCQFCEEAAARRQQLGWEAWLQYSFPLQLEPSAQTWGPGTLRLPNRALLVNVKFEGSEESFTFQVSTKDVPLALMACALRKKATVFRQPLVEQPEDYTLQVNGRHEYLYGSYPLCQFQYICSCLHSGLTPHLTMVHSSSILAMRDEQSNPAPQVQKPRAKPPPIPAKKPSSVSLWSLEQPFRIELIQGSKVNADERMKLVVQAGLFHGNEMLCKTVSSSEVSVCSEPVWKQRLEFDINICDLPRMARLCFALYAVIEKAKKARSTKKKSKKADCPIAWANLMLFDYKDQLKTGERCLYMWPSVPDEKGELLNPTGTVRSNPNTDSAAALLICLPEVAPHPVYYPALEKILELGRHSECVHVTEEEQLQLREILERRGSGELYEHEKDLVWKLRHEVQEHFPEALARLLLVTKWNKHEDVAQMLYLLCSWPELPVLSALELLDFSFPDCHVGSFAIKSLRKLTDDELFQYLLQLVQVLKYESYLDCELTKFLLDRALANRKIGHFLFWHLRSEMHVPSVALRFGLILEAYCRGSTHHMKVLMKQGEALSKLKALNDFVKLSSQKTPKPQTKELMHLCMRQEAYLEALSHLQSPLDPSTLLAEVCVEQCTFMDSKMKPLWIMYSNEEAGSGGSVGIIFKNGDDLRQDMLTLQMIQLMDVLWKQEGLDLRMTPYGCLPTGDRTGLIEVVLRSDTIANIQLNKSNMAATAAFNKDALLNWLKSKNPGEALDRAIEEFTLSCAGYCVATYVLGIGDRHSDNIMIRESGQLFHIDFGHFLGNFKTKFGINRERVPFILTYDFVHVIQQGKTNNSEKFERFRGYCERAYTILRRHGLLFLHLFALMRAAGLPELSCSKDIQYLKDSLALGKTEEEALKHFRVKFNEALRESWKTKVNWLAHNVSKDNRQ
Chain of recombinant human PI3Kδ (6-His(p110-p85α)) (P27986 whole entry partner): as the sequence (P27986 whole entry partner) above
In short: (§2)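 ADP-Glo luminescence after DiC8-PIP2 (80 μM) phosphorylation with 20 μM ATP in 50 mM Tris pH 7.4, 3 mM MgCl2, 2.1 mM DTT, 0.05% CHAPS at room temperature. Enzyme 1.2 nM PI3Kγ or 0.6 nM PI3Kδ; inhibitors pre-incubated 15 min, then 60 min reaction.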

[4] = target: recombinant human PI3Kγ ((aa144-1102)-6His) (Homo sapiens (Human), UniProt P48736); assay: Enzymatic activity assay for recombinant human PI3Kγ (ADP-Glo); settings: 1.2 nM PI3Kγ, 20 μM ATP, 80 μM DiC8-PIP2, ADP-Glo
Chain of recombinant human PI3Kγ ((aa144-1102)-6His) (P48736 144-1102): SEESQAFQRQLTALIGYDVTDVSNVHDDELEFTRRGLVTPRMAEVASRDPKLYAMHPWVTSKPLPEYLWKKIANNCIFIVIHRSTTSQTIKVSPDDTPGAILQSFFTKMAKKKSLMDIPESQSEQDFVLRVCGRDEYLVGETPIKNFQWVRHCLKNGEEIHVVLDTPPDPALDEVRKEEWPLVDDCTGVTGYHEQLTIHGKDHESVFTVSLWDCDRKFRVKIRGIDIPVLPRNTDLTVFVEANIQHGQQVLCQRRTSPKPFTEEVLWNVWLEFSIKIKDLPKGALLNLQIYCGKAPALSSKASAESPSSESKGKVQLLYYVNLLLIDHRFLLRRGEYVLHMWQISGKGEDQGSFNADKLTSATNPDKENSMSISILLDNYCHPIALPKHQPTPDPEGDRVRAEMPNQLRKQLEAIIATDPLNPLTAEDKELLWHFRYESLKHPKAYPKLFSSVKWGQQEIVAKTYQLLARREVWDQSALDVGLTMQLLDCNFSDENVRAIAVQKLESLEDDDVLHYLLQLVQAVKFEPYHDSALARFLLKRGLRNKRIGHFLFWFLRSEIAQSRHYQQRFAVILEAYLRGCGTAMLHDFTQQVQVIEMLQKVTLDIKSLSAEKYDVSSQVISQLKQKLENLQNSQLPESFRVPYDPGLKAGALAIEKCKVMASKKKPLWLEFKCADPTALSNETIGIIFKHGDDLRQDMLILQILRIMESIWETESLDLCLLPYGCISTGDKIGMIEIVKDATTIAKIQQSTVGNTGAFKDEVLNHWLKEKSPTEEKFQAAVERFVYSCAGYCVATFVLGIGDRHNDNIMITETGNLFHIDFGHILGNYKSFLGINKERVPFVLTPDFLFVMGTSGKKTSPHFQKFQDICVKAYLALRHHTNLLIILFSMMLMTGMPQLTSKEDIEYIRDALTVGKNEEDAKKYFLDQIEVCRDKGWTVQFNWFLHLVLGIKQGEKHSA
In short: as §2

Chain of recombinant human PI3Kβ (6-His(p110-p85α)) (P42338 whole entry): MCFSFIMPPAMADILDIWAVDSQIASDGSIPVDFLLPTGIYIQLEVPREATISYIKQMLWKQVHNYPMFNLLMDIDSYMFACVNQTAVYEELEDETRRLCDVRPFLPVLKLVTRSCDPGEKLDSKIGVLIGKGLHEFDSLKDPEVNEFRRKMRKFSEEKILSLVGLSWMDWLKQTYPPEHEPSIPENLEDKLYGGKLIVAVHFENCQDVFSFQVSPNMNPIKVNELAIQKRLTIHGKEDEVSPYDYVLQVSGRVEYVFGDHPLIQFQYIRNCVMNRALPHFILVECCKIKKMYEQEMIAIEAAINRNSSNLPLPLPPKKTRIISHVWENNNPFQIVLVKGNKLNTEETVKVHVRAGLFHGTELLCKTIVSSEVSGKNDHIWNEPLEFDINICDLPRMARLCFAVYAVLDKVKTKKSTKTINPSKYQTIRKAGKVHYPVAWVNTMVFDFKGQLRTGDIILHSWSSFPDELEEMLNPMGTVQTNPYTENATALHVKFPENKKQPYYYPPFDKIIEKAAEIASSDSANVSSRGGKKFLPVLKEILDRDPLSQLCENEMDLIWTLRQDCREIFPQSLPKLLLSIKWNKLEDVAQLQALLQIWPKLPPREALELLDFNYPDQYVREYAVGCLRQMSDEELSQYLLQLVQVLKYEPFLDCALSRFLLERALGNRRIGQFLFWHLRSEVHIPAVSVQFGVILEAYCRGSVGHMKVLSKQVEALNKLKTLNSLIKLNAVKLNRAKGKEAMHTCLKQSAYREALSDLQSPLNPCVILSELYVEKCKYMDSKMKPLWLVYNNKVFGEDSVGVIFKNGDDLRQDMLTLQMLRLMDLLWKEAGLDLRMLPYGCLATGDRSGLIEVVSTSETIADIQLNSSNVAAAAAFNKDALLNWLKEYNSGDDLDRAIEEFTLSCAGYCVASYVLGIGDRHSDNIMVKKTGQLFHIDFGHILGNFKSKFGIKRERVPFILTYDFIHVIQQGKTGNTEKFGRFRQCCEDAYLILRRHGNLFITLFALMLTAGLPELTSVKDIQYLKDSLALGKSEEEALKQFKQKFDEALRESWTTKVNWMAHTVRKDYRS
Chain of recombinant human PI3Kβ (6-His(p110-p85α)) (P27986 whole entry partner): as the sequence (P27986 whole entry partner) above

| IC50 [1] | IC50 [2] | IC50 [3] | IC50 [4] | SMILES |
| --- | --- | --- | --- | --- |
| 10400 nM | 485 nM | 8.9 nM | 1.4 nM | CNS(=O)(=O)c1cc(-c2sc(Nc3cccc(N4CCOCC4=O)n3)nc2C)cc2c1C(=O)N([C@@H](C)C(C)(C)C)C2 [Example 39, 2-[(2S)-3,3-Dimethylbutan-2-yl]-N-methyl-6-(4-methyl-2-{[6-(3-oxomorpholin-4-yl)pyridin-2-yl]amino}-1,3-thiazol-5-yl)-3-oxo-2,3-dihydro-1H-isoindole-4-sulfonamide] |
| 729 nM | 104 nM | 1.7 nM | 1.6 nM | Cc1nc(Nc2cccc(N3CCNCC3=O)n2)sc1-c1cc2c(c(S(C)(=O)=O)c1)C(=O)N([C@@H](C)C1CC1)C2 [Example 40, 2-[(1S)-1-Cyclopropylethyl]-5-(4-methyl-2-{[6-(2-oxopiperazin-1-yl)pyridin-2-yl]amino}-1,3-thiazol-5-yl)-7-(methylsulfonyl)-2,3-dihydro-1H-isoindol-1-one] |
| 298 nM | 72 nM | 0.9 nM | 1.3 nM | CNS(=O)(=O)c1cc(-c2sc(Nc3cccc(N4CCNCC4=O)n3)nc2C)cc2c1C(=O)N([C@@H](C)C1CC1)C2 [Example 41, 2-[(1S)-1-Cyclopropylethyl]-N-methyl-6-(4-methyl-2-{[6-(2-oxopiperazin-1-yl)pyridin-2-yl]amino}-1,3-thiazol-5-yl)-3-oxo-2,3-dihydro-1H-isoindole-4-sulfonamide] |
| 286 nM | 69 nM | 0.8 nM | 1 nM | CNS(=O)(=O)c1cc(-c2sc(Nc3cccc(N4C[C@H](C)NCC4=O)n3)nc2C)cc2c1C(=O)N([C@@H](C)C1CC1)C2 [Example 42, 2-[(1S)-1-Cyclopropylethyl]-N-methyl-6-[4-methyl-2-({6-[(5S)-5-methyl-2-oxopiperazin-1-yl]pyridin-2-yl}amino)-1,3-thiazol-5-yl]-3-oxo-2,3-dihydro-1H-isoindole-4-sulfonamide] |
| 284 nM | 40 nM | 1 nM | 1 nM | CNS(=O)(=O)c1cc(-c2sc(Nc3cccc(N4CCN[C@H](C)C4=O)n3)nc2C)cc2c1C(=O)N([C@@H](C)C1CC1)C2 [Example 43, 2-[(1S)-1-Cyclopropylethyl]-N-methyl-6-[4-methyl-2-({6-[(3R)-3-methyl-2-oxopiperazin-1-yl]pyridin-2-yl}amino)-1,3-thiazol-5-yl]-3-oxo-2,3-dihydro-1H-isoindole-4-sulfonamide] |
| 518 nM | 72 nM | 1.5 nM | 1.2 nM | CNS(=O)(=O)c1cc(-c2sc(Nc3cccc(N4CCN[C@@H](C)C4=O)n3)nc2C)cc2c1C(=O)N([C@@H](C)C1CC1)C2 [Example 44, 2-[(1S)-1-Cyclopropylethyl]-N-methyl-6-[4-methyl-2-({6-[(3S)-3-methyl-2-oxopiperazin-1-yl]pyridin-2-yl}amino)-1,3-thiazol-5-yl]-3-oxo-2,3-dihydro-1H-isoindole-4-sulfonamide] |
| 257 nM | 33 nM | 1 nM | 0.8 nM | CNS(=O)(=O)c1cc(-c2sc(Nc3cccc(N4C[C@@H](C)NCC4=O)n3)nc2C)cc2c1C(=O)N([C@@H](C)C1CC1)C2 [Example 45, 2-[(1S)-1-Cyclopropylethyl]-N-methyl-6-[4-methyl-2-({6-[(5R)-5-methyl-2-oxopiperazin-1-yl]pyridin-2-yl}amino)-1,3-thiazol-5-yl]-3-oxo-2,3-dihydro-1H-isoindole-4-sulfonamide] |
| 123 nM | 24 nM | 0.8 nM | 1 nM | CNS(=O)(=O)c1cc(-c2sc(Nc3cccc(N4C(=O)CNC[C@H]4C)n3)nc2C)cc2c1C(=O)N([C@@H](C)C1CC1)C2 [Example 46, 2-[(1S)-1-Cyclopropylethyl]-N-methyl-6-[4-methyl-2-({6-[(2R)-2-methyl-6-oxopiperazin-1-yl]pyridin-2-yl}amino)-1,3-thiazol-5-yl]-3-oxo-2,3-dihydro-1H-isoindole-4-sulfonamide] |
| 824 nM | 97 nM | 4.4 nM | 1.3 nM | CNS(=O)(=O)c1cc(-c2sc(Nc3cccc(N4CCNC(C)(C)C4=O)n3)nc2C)cc2c1C(=O)N([C@@H](C)C1CC1)C2 [Example 47, 2-[(1S)-1-Cyclopropylethyl]-6-(2-{[6-(3,3-dimethyl-2-oxopiperazin-1-yl)pyridin-2-yl]amino}-4-methyl-1,3-thiazol-5-yl)-N-methyl-3-oxo-2,3-dihydro-1H-isoindole-4-sulfonamide] |
| 199 nM | 19 nM | 0.7 nM | 1.5 nM | CNS(=O)(=O)c1cc(-c2sc(Nc3cccc(N4CC(C)(C)NCC4=O)n3)nc2C)cc2c1C(=O)N([C@@H](C)C1CC1)C2 [Example 48, 2-[(1S)-1-Cyclopropylethyl]-6-(2-{[6-(5,5-dimethyl-2-oxopiperazin-1-yl)pyridin-2-yl]amino}-4-methyl-1,3-thiazol-5-yl)-N-methyl-3-oxo-2,3-dihydro-1H-isoindole-4-sulfonamide] |
| 800 nM | 87 nM | 2.6 nM | 1.9 nM | CNS(=O)(=O)c1cc(-c2sc(Nc3cccc(N4C(=O)CNC[C@@H]4C)n3)nc2C)cc2c1C(=O)N([C@@H](C)C1CC1)C2 [Example 49, 2-[(1S)-1-Cyclopropylethyl]-N-methyl-6-[4-methyl-2-({6-[(2S)-2-methyl-6-oxopiperazin-1-yl]pyridin-2-yl}amino)-1,3-thiazol-5-yl]-3-oxo-2,3-dihydro-1H-isoindole-4-sulfonamide] |
| 271 nM | 54 nM | 0.8 nM | 1.4 nM | CCNS(=O)(=O)c1cc(-c2sc(Nc3cccc(N4CCNCC4=O)n3)nc2C)cc2c1C(=O)N([C@@H](C)C1CC1)C2 [Example 50, 2-[(1S)-1-Cyclopropylethyl]-N-ethyl-6-(4-methyl-2-{[6-(2-oxopiperazin-1-yl)pyridin-2-yl]amino}-1,3-thiazol-5-yl)-3-oxo-2,3-dihydro-1H-isoindole-4-sulfonamide] |
| 415 nM | 134 nM | 1.1 nM | 1.5 nM | Cc1nc(Nc2cccc(N3CCNCC3=O)n2)sc1-c1cc2c(c(S(=O)(=O)NC(C)C)c1)C(=O)N([C@@H](C)C1CC1)C2 [Example 51, 2-[(1S)-1-Cyclopropylethyl]-6-(4-methyl-2-{[6-(2-oxopiperazin-1-yl)pyridin-2-yl]amino}-1,3-thiazol-5-yl)-3-oxo-N-(propan-2-yl)-2,3-dihydro-1H-isoindole-4-sulfonamide] |
| 264 nM | 64 nM | 0.7 nM | 1.4 nM | CNS(=O)(=O)c1cc(-c2sc(Nc3cccc(N4CCNCCC4=O)n3)nc2C)cc2c1C(=O)N([C@@H](C)C1CC1)C2 [Example 53, 2-[(1S)-1-Cyclopropylethyl]-N-methyl-6-(4-methyl-2-{[6-(7-oxo-1,4-diazepan-1-yl)pyridin-2-yl]amino}-1,3-thiazol-5-yl)-3-oxo-2,3-dihydro-1H-isoindole-4-sulfonamide] |
| 325 nM | 14 nM | 0.5 nM | 0.9 nM | CNS(=O)(=O)c1cc(-c2sc(Nc3cccc(N4CC[C@@H](O)C4=O)n3)nc2C)cc2c1C(=O)N([C@@H](C)C1CC1)C2 [Example 54, 2-[(1S)-1-Cyclopropylethyl]-6-[2-({6-[(3R)-3-hydroxy-2-oxopyrrolidin-1-yl]pyridin-2-yl}amino)-4-methyl-1,3-thiazol-5-yl]-N-methyl-3-oxo-2,3-dihydro-1H-isoindole-4-sulfonamide] |
| 386 nM | 40 nM | 1.1 nM | 0.9 nM | CNS(=O)(=O)c1cc(-c2sc(Nc3cccc(N4C[C@H](O)CC4=O)n3)nc2C)cc2c1C(=O)N([C@@H](C)C1CC1)C2 [Example 55, 2-[(1S)-1-Cyclopropylethyl]-6-[2-({6-[(4R)-4-hydroxy-2-oxopyrrolidin-1-yl]pyridin-2-yl}amino)-4-methyl-1,3-thiazol-5-yl]-N-methyl-3-oxo-2,3-dihydro-1H-isoindole-4-sulfonamide] |
| 249 nM | 26 nM | 0.5 nM | 1 nM | CNS(=O)(=O)c1cc(-c2sc(Nc3cccc(N4CC[C@H](O)C4=O)n3)nc2C)cc2c1C(=O)N([C@@H](C)C1CC1)C2 [Example 56, 2-[(1S)-1-Cyclopropylethyl]-6-[2-({6-[(3S)-3-hydroxy-2-oxopyrrolidin-1-yl]pyridin-2-yl}amino)-4-methyl-1,3-thiazol-5-yl]-N-methyl-3-oxo-2,3-dihydro-1H-isoindole-4-sulfonamide] |
| 85 nM | 11 nM | 0.7 nM | 1.2 nM | CNS(=O)(=O)c1cc(-c2sc(Nc3cccc(N4C(=O)CC[C@H]4CO)n3)nc2C)cc2c1C(=O)N([C@@H](C)C1CC1)C2 [Example 57, 2-[(1S)-1-Cyclopropylethyl]-6-[2-({6-[(2S)-2-(hydroxymethyl)-5-oxopyrrolidin-1-yl]pyridin-2-yl}amino)-4-methyl-1,3-thiazol-5-yl]-N-methyl-3-oxo-2,3-dihydro-1H-isoindole-4-sulfonamide] |

Reference: patent US10961236B2, “(S)-2-(1-cyclopropylethyl)-5-(4-methyl-2-((6-(2-oxopyrrolidin-1-yl)pyridin-2-yl)amino) thiazol-5-yl)-7-(methylsulfonyl)isoindolin-1-one as a phosphatidylinositol 3-kinase inhibitor” (AstraZeneca AB, priority 2016, dated 2021)
